In BindingDB's records for doi:10.1016/0024-3205(94)00413-m (Sanofi Recherche, 1995) one finds Ki data, which are given here for one compound.

As usually defined, the Ki is the equilibrium dissociation constant of an inhibitor or competing ligand from its target. A high value points to weaker binding.

The target of one assay is Substance-P receptor (Rattus norvegicus, UniProt P14600).
Assay [1] deals with T1, Substance-K receptor (Cavia porcellus, UniProt Q64077).
T1 sequence (Q64077 whole entry): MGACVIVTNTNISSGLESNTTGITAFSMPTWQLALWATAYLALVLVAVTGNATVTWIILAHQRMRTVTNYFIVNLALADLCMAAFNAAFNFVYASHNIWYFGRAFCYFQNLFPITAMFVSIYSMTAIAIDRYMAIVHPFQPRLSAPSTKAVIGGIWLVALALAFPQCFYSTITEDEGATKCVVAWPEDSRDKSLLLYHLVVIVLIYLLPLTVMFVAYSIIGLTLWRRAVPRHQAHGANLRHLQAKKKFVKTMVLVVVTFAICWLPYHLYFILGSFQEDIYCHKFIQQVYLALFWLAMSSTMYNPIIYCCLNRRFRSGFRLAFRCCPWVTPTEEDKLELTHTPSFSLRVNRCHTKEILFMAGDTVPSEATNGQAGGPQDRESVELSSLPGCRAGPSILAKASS

In assay [2] the target is T2, Substance-K receptor (Mesocricetus auratus, UniProt P51144).
T2 sequence (P51144 whole entry): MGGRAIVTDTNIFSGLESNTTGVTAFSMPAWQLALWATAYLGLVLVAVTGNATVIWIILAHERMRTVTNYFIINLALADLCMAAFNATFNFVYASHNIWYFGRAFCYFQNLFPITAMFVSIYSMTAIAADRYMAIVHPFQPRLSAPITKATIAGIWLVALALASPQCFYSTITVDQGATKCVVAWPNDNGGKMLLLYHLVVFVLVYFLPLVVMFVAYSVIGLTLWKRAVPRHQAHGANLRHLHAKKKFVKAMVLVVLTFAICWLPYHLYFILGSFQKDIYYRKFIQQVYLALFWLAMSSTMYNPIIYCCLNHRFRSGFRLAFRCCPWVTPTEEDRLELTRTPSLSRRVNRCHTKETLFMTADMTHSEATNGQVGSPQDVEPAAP

Assay [3] addresses T3, Substance-K receptor (Rattus norvegicus, UniProt P16610).
T3 sequence (P16610 whole entry): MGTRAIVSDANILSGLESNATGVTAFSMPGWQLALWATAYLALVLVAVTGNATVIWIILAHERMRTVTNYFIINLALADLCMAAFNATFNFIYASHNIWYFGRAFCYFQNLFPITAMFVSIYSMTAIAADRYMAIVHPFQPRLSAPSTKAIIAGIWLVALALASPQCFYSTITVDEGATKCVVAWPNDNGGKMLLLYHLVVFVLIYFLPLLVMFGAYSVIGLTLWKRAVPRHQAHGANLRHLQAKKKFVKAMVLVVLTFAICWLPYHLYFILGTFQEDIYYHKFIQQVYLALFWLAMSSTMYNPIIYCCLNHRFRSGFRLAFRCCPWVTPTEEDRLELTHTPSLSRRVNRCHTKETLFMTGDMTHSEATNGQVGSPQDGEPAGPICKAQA

The structures appear in SMILES notation. “And” between values parts separate entries of the source, which are not always exact repeats. Identical values can stand only once.

Substance-P receptor, sequence (P14600 whole entry): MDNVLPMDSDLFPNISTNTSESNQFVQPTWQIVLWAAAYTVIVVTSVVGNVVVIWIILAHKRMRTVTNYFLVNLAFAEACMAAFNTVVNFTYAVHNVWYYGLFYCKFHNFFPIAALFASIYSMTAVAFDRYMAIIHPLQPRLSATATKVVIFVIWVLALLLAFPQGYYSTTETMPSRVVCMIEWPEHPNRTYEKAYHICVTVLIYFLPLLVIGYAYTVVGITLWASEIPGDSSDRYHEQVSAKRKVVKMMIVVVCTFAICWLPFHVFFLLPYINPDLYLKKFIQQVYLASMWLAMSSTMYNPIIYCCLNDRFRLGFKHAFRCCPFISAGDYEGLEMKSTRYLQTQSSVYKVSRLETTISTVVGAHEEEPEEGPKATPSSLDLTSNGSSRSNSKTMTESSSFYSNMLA

For the compound `CC(=O)N(C)C1(c2ccccc2)CCN(CCCC2(c3ccc(Cl)c(Cl)c3)CCCN(C(=O)c3ccccc3)C2)CC1` (centres undefined) [SR 142806], the Ki at Substance-P receptor was 2000 nM; at Substance-K receptor [1], 73 nM and 350 nM; at Substance-K receptor [2] it was 2000 nM; on Substance-K receptor [3], 100 nM and 248 nM.
